Here are results for 17 molecules from PubChem BioAssay (NCI).

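Cells were grown in 96-well plates and exposed to each compound for 48 hours at five concentrations; endpoints were interpolated linearly between bracketing concentrations, or set to the highest concentration if not reached. GI50 marks 50% less growth. TGI: concentration producing complete growth inhibition.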

What all share (assay): DTP human tumour cell line panel, 48 h
Assay [1] has as its system UACC-257 melanoma.
Assay [2] has as its system 786-0 renal.
Assay [3] relates to HL-60(TB) leukemia.
The test system of assay [4] is U251 CNS.
Assay [5] concerns SF-539 CNS.
The subject of assay [6] is COLO 205 colon.
Assay [7] deals with SR leukemia.
The test system of assay [8] is HT29 colon.
The subject of assay [9] is MCF7 breast.

In the case of `CC1=NNC(=O)C2CCC(=O)N12` (stereo not given), the TGI in [1], in [2], in assay [3], in assay [4], in assay [5] and in [6] was > 100 µM in each case. In assay [7], the TGI is > 100 µM.

For `CN(C)c1nc2ccccc2[nH]1`, the TGI in assay [8], in assay [1], in [2], in assay [3], in assay [4] and in assay [5] was > 100 µM each time. The TGI in assay [6] is > 100 µM.

With `Cc1cc(CC(O)c2ccc(Cl)c(Cl)c2)nc(=O)[nH]1` (stereo not given), the TGI in assay [8] was > 100 µM; in [1], > 100 µM; in assay [2] it was 38.7 µM; in assay [3] it was > 100 µM; in assay [4] it was > 100 µM; in assay [6], 85.2 µM. The TGI in [7] was > 100 µM.

Consider `Cn1c2ccccc2c2c3c(c4c5cc(Br)ccc5n(C)c4c21)C(=O)N(O)C3=O`, for which the GI50 in assay [1] is 0.264 µM; in [2], 0.289 µM; in assay [9], 0.0579 µM; in assay [4], 0.0499 µM; in [5], 0.0403 µM; in assay [7] it was 0.0156 µM. Further, the TGI is > 100 µM in assay [1]; 1.4 µM in [2]; > 100 µM in [9]; 0.489 µM in [4]; 0.323 µM in [5]; 0.584 µM in assay [7].

Consider `[N-]=[N+]=NC12CC3C4CC5CC3C(C1)C(C5)C4C2`, for which the TGI in assay [8], in [1], in [2], in [4], in assay [5] and in assay [6] was > 100 µM throughout. In addition, in assay [7], the TGI was > 100 µM.

Take `OC[C@H]1C[C@](O)(c2ccc(Cl)cc2)[C@@H](c2ccc(Cl)cc2)O1`: the GI50 was 23.7 µM in assay [8]; 21.2 µM in assay [1]; 22.4 µM in assay [2]; 30 µM in assay [9]; 17.6 µM in assay [3]; 24.8 µM in assay [4]. Moreover, the GI50 in assay [5] was 23.3 µM; in [6], 25.6 µM; in assay [7] it was 0.202 µM. For the same molecule, the TGI in [8] is 50.1 µM; in [1], 44.7 µM; in assay [2], 55.9 µM; in assay [9], 72.8 µM; in [3] it was 49.2 µM; in assay [4] it was 69.5 µM. Moreover, the values for the TGI in assay [5], in [6] and in [7] were 53.8 µM, 51.8 µM and 16.8 µM, respectively.

For the molecule `CC1=C(C(=O)Nc2ccccc2)C(c2ccccc2)C(C(=O)Nc2ccccc2)=C(C)N1`, the TGI in assay [8], in assay [1], in assay [2], in [3], in [4] and in [5] was > 100 µM each time. Besides, the TGI in assay [6] is > 100 µM.

In the case of `O=C(/C=C/c1ccccc1O)c1ccccc1O`, the TGI in assay [8], in [1], in [2], in assay [3], in [4] and in assay [5] was > 100 µM in each case. For the same molecule, the TGI in [6] is > 100 µM.

Consider `S=C(Nc1ccccc1)N(/N=C/C=C/c1ccccc1)c1nnc(-c2ccccc2)c(-c2ccccc2)n1`, for which the total growth inhibition concentration (TGI) is > 100 µM in assay [8]; > 100 µM in assay [1]; > 100 µM in [2]; 52.4 µM in assay [3]; > 100 µM in assay [4]; > 100 µM in assay [5]. Further, the TGI in assay [6] was > 100 µM.

Consider `COc1ccc2c3c([nH]c2c1[N+](=O)[O-])C(C)=NCC3`, for which the concentration for total growth inhibition (TGI) in assay [8], in [1], in [2], in assay [3], in assay [4] and in assay [5] was > 100 µM each time. The TGI in assay [6] and in [7] was > 100 µM in each case.

As for `CCCN=C(N)NC#N`, the TGI is > 100 µM in assay [8]; > 100 µM in [1]; 65.1 µM in [2]; > 100 µM in assay [3]; > 100 µM in assay [4]; > 100 µM in [5]. Moreover, the TGI in assay [6] amounted to 32.9 µM; in assay [7], 77.2 µM.

For the molecule `Cc1ccc(NC(=O)C(=O)C(C(=O)c2ccc3ccccc3c2)C2OC(=O)c3ccccc32)cc1C` (stereo not given), the TGI was > 100 µM in assay [8]; 42.4 µM in assay [1]; 23.8 µM in assay [2]; 44.9 µM in assay [3]; 33.2 µM in [4]; 11.4 µM in [5]. The TGI in assay [6] was 32.6 µM.

With `Cc1ccc(Cc2c(=O)[nH]nc3ccccc23)cc1`, the TGI in assay [8], in [1], in [2], in assay [5] and in assay [6] was > 100 µM throughout.

For `CC(C)N(C(=O)C12C3C4C5(C#N)C3C1(C#N)C5C42I)C(C)C` (stereo not given), the TGI in assay [8] is > 100 µM; in [1] it was > 100 µM; in assay [2] it was > 100 µM; in assay [3] it was > 55.6 µM; in assay [4] it was > 100 µM; in assay [5], > 100 µM. The results for the TGI in [6] and in assay [7] were > 65.1 µM and 38.2 µM, respectively.

As to `COc1cc(C(Cc2ccccc2)NC(C)=O)oc(=O)c1` (stereo not given), the TGI in assay [8], in assay [1], in [2], in assay [3], in assay [4] and in [6] was > 100 µM each time.

On to `CC(C)(C)CC(C)(C)c1cc2c(O)c(c1)Cc1cc(C(C)(C)CC(C)(C)C)cc(c1O)Cc1cc(C(C)(C)CC(C)(C)C)cc(c1O)Cc1cc(C(C)(C)CC(C)(C)C)cc(c1O)C2`, for which the TGI in assay [8], in [1], in [2], in [3], in [4] and in assay [5] was > 100 µM in each case. Also, the TGI in assay [6] is > 100 µM.

Consider `COc1cccc(/C=C/c2cc(OC)c(OC)c(OC)c2)c1`, for which the TGI in assay [8], in [1], in assay [2], in [4], in assay [5] and in [6] was > 100 µM in each case. In addition, the TGI in assay [7] is > 100 µM.

For orientation: TGI means the concentration giving total growth inhibition. Read a high TGI as lower sensitivity of the cells. Usually GI50 stands for the concentration that inhibits growth by half.
